In ChEMBL document CHEMBL1141120, “Structure-based design and discovery of protein tyrosine phosphatase inhibitors incorporating novel isothiazolidinone heterocyclic phosphotyrosine mimetics” (J Med Chem, 2005):
pIC50, pKi: −log10 of the molar value.

Experiments:
[1] = target: T1, Tyrosine-protein phosphatase non-receptor type 1 (Homo sapiens, UniProt P18031); assay: Inhibition constant against protein-tyrosine phosphatase 1B by PNPP enzyme assay
T1 sequence (P18031 whole entry): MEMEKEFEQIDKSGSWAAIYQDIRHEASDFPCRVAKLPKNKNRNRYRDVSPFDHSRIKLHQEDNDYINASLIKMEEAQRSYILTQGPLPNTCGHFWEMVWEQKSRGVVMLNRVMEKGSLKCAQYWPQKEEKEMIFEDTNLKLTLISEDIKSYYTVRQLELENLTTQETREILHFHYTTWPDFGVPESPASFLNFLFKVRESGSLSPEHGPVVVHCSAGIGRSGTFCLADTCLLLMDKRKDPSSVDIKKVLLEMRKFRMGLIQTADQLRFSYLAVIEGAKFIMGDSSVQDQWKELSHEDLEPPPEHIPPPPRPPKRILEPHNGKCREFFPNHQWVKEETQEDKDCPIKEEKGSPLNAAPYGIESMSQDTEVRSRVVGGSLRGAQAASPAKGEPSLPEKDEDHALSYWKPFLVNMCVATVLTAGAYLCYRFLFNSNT

[2] = target: T1, Tyrosine-protein phosphatase non-receptor type 1; assay: Inhibitory concentration against protein-tyrosine phosphatase
[3] = target: T2, Tyrosine-protein phosphatase non-receptor type 2 (Homo sapiens, UniProt P17706); assay: Inhibitory concentration against T cell protein tyrosine phosphatase
T2 sequence (P17706 whole entry): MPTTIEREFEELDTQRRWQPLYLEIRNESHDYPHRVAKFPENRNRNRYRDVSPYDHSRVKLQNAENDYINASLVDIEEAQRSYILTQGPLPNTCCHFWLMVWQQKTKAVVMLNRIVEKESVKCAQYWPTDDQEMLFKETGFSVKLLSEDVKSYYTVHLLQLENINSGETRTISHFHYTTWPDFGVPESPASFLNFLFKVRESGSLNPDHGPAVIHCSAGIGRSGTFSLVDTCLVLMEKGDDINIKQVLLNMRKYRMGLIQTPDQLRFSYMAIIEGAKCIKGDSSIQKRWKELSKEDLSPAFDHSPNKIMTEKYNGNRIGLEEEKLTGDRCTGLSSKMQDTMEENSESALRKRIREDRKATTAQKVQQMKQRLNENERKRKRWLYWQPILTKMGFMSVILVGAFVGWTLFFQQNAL

CC(=O)N[C@@H](Cc1ccccc1)C(=O)N[C@@H](Cc1ccc([C@@H]2CC(=O)NS2(=O)=O)cc1)C(N)=O
pKi [1]: 6.74 | pIC50 [2]: < 4.00 | pIC50 [3]: 6.87
